Reference: patent publication US12213958B2, “Compositions, methods, systems and/or kits for preventing and/or treating neoplasms” (Research Cancer Institute of America, priority 2017, dated 2025)

What was measured:
glioma cells = settings: cited from earlier work
[1] = cited from earlier work
OVCAR 3 Cancer cells = test: Nanoformulated quercetin in mice with implanted tumor; settings: mouse, in vivo
Description: Animals—Immunodeficient, female athymic mice aged 5-6 weeks and weighing between 18 and 20 g were purchased from Taconic Biosciences (Albany, NY). All animal studies were conducted at the animal facility of the Veteran Affairs Medical Center, Albany, NY in accordance with and approved by institutional guidelines for humane animal treatment and according to the current guidelines. Mice were maintained under specific pathogen-free conditions and housed under controlled conditions of temperature (20-24° C.) and humidity (60-70%) and 12 h light/dark cycle with ad libitum access to water and food. Mice were allowed to acclimatize for 5 d prior to the start of study.
Treatment—OVCAR 3 Cancer cells (1×10^6) were implanted subcutaneously in right flank of each animal. In the first set of experiments, control, free Quercetin (3 mg/kg), NPS-quercetin(3 mg/kg), and FA-NPs-quercetin (3 mg/kg) were injected subcutaneously to the mice everyday (for 14 days). The control was PBS, after humane sacrifice of animals at 14 days, tumors were harvested and amount of QC was measured.

SMILES	angiogenesis (glioma cells)	water solubility [1]	adverse toxic effect on the health of tumor bearing mice (OVCAR 3 Cancer cells)
O=c1c(O)c(-c2ccc(O)c(O)c2)oc2cc(O)cc(O)c12 [Quercetin, quercetin]	suppression of angiogenesis	not water soluble	–
O=c1c(O)c(-c2ccc(O)c(O)c2)oc2cc(O)cc(O)c12 [Free QC, quercetin]	–	–	does not have any adverse toxic effect
